Data from US12528777B2, “Quinazolinones derivatives for treatment of non-alcoholic fatty liver disease, preparation and use thereof” (Council of Scientific and Industrial Research, priority 2020, dated 2026).

What was measured:
[1] = Lipophilicity assay (octanol/buffer); type: physicochemical; conditions: for logD / LogD @ pH 7.4: n-octanol / 10 mM sodium phosphate buffer pH 7.4, LC-UV; for Lipophilicity class from Log D: pH 7.4
Protocol: 1.56 g NaH2PO4·2H2O was dissolved in 0.5 L water in a 1 L beaker. After adjusting pH to 7.4 using NaOH solution, the volume was made up to 1 L. Equal volumes of sodium phosphate buffer (10 mM, pH 7.4) and n-octanol were added to a separation funnel and mixed thoroughly by shaking and inverting the funnel several times. The two layers were allowed to separate for overnight and then dispensed in two separate glass bottles. 10 mM stock solution was prepared in 100% DMSO and stored at 4° C. 495 μL of organic phase (1-octanol) was added to each well of a 2 mL deep well plate, followed by 495 μL of buffer and 10 μL of test compound was added. The plate was incubated for 3 hr at room temperature on a plate shaker at 500 rpm. After incubation, the samples were allowed to equilibrate for 20 min and then centrifuged at 4000 rpm for 30 min for complete phase separation and analysed by LC-UV.
Log D=Log (area of octanol/area of buffer)

[2] = test system: ATGL; experiment: Western blot of ATGL level in HepG2 cells; type: cell-based; set-up: key to Increase in ATGL level: + = slight or in insignificant; ++ = Moderate; +++ and ++++ = active; +++ and ++++ = active; +++++ = very active; conditions: for Increase in ATGL level: HepG2 cells, score; for Increase in ATGL level / ATGL level in HepG2 cells: western blot; for ATGL level in HepG2 cells: 24 hours, 10 μM screening or 50 nM-5 μM dose dependent
Procedure, shortened: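 HepG2 cells were treated with compound 24 h (10 μM screen; 50 nM–5 μM dose series) and lysed. 30 μg protein was western blotted for ATGL, with actin as loading reference. ATGL increase was expressed as percent of the 1.6-fold siCOP1 maximum and plotted against log concentration for EC50.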

[3] = Plasma stability assay; type: in vitro ADME, human; conditions: for Mean % remaining at 2 hrs in human Plasma: 1 μM, 37° C., 120 min, LC-MS/MS; for Plasma stability: human plasma, after 2 hours, with respect to Propantheline
Protocol: 1 mM Stock of test compound was prepared from 10 mM initial stock solution of compounds by diluting 10 μL of 10 mM stock with 90 μL of DMSO. Then 10 μL of 1 mM stock was diluted with 90 µL of DMSO to give 100 μM concentration. The frozen plasma was thawed at room temperature and centrifuged at 1400 rpm at 4° C., for 15 minutes. Approximately […] of the clear supernatant fraction was transferred to a separate tube and was used for the assay. Final working stock of 1 μM was prepared by diluting 3 μL of 100 μM with 297 μL of plasma. Plasma containing the test compound was incubated for 120 min at 37° C. in shaker with 500 rpm. 50 μL of aliquot of sample at 0, 15, 30, 60 and 120 minutes were precipitated with 150 μL of acetonitrile containing internal standard and centrifuged at 4000 rpm at 4° C. for 20 minutes. 120 μL of supernatant was diluted with 120 μL of water and analyzed by LC-MS/MS.

[4] = test system: HepG2 cells; experiment: Confocal microscopy: lipid droplets in oleate induced HepG2 cells; type: cell-based; set-up: key to Reduction in Lipid Droplets: + = slight or in insignificant; ++ = Moderate; +++ and ++++ = active; +++ and ++++ = active; +++++ = very active; conditions: for Reduction in Lipid Droplets: oleate induced HepG2 cells, score
Protocol: To select the compounds capable of inhibiting the ubiquitination of ATGL by COP1 by targeting the VP motif, confocal microscopy was performed with the provided molecules. If the compound was effective in inhibiting the interaction, there would be a reduction in the number of fat droplets in the cells after treatment. […] With this rationale in mind, HepG2 cells were induced to accumulate lipid droplets after treatment with 250 µM of oleate and 10 μM of the specific compounds were added. The potential of the compounds to bring about a reduction in the number of fat droplets was then checked by comparison with oleate induced cells by counting number of droplets of approximately 20 cells from each treatment and calculating the average number of lipid droplets of each cell. The selected compounds were then subjected to dose dependent treatments and the ones which could maintain its potency to reduce fat droplets at lower doses were then selected for western blot analysis. The compound which could reduce the number of fat droplets in the cells are expected to raise the levels of ATGL since they are likely to deter COP1 from ubiquitinating ATGL. This increase will be visible only in the protein level and gene expression is likely to remain unchanged since ubiquitination is a […] modification. Thus, western blot was performed to check ATGL levels in the cells with the selected molecules.
HepG2 cells were plated in confocal dishes (SPL, Genetix Biotech Asia Pvt. Ltd.). The cells were allowed to adhere and divide for 16 hours. 10 μM for initial screening and 10 nM, 20 nM, 50 nM, 100 nM, 200 nM, 500 nM, 1 μM and 5 μM for dose dependent assays of the compounds 9 and 107 were dissolved in DMSO and added to the cells. 250 μM of oleate was used for induction. BSA (Sigma Aldrich) was used as a negative control. Post 24 hours of treatment, media was decanted from the cells and washed with 1×PBS solution to remove any remnant. 200 μl of staining solution containing 200 ng/ml BODIPY (Invitrogen) and 25 µg/ml HOECKST342 (Invitrogen) were added to the cells and incubated at 37° C. for 30 minutes under dark conditions. Cells were washed 3 times with 1×PBS to remove excess stain. FLUOVIEW FV10i (Olympus) was used to visualise the cells.

[5] = Metabolic stability using Human Liver Microsomes; type: in vitro ADME; conditions: for % QH (Well stirred model): NADPH, 0-60 min
Protocol: 1 mM stock solution of test compound was prepared in DMSO and diluted with Acetonitrile:Water (1:1) to get a 100 μM working concentration. 100 mL of Milli Q water was added to K2HPO4 (1.398 g) and KH2PO4 (0.27 g) to get final pH 7.4 solution of potassium phosphate buffer. […] The above mixture was pre incubated for 15 minutes at 37° C. After pre incubation, 32.5 μL of the mixture was added to 17.5 μL of buffer, this was incubated for 60 minutes at 37° C. [60 min Without Cofactor (NADPH)]. 16.25 μL of the pre incubated mixture and 8.75 μL of cofactor was added to 150 μL of acetonitrile containing internal standard [0 min Sample]. 62 μL of cofactor was added to remaining pre incubation mixture [Incubation mixture]. 25 μL of incubation mixture at 0, 5, 15, 30, 60 min and 60 min without cofactor were precipitated with 150 μL of acetonitrile containing internal standard, vortexed and centrifuged at 4000 rpm at 4° C. for 20 minutes. 120 μL of supernatant was diluted with 120 μL of water and analyzed by LC-MS/MS [sample preparation].

For `COCCn1c(C2CCCCC2)nc2ccc(NC(=O)Nc3cccc(C(C)=O)c3)cc2c1=O` [Compound 123, 1-(3-acetylphenyl)-3-(2-cyclohexyl-3-(2-methoxyethyl)-4-oxo-3,4-dihydroquinazolin-6-yl)urea], the logD [1] was 0.84, the “Lipophilicity class from Log D” value [1] was “hydrophilic” and the “Increase in ATGL level” value [2] was “++++”. For the same compound, the “ATGL level in HepG2 cells” value [2] was “increased ATGL level”, the “Mean % remaining at 2 hrs in human Plasma” value (shortened to “Mean % remaining at 2 hrs”) [3] was 48.5% and the “Plasma stability” value [3] was “good plasma stability”. The “Reduction in Lipid Droplets” value [4] was “+++”.

In the case of `CCCCn1cnc2ccc(NC(=O)Nc3cccc(C(C)=O)c3)cc2c1=O` [Compound 175, 1-(3-acetylphenyl)-3-(3-butyl-4-oxo-3,4-dihydroquinazolin-6-yl)urea], the “Increase in ATGL level” value [2] is reported as “+”, the “ATGL level in HepG2 cells” value [2] is reported as “did not increase ATGL level” and the “Number of lipid droplets” value ([4]; HepG2 cells, 250 μM oleate induction) is reported as “reduced lipid droplets”. For the same compound, the “Reduction in Lipid Droplets” value [4] was “+”.

With `COCCn1cnc2cc(NC(=O)Nc3cccc(C(C)=O)c3)ccc2c1=O` [Compound 192, 1-(3-acetylphenyl)-3-(3-(2-methoxyethyl)-4-oxo-3,4-dihydroquinazolin-7-yl)urea] the “Increase in ATGL level” value [2] was “+++” and the “Reduction in Lipid Droplets” value [4] was “++”.

With `COCCn1cnc2cc(NC(=O)Nc3ccc(C(C)=O)cc3)ccc2c1=O` [Compound 193, 1-(4-acetylphenyl)-3-(3-(2-methoxyethyl)-4-oxo-3,4-dihydroquinazolin-7-yl)urea] the “Increase in ATGL level” value [2] was “+” and the “Reduction in Lipid Droplets” value [4] was “+”.

In the case of `COCCn1c(-c2ccccn2)nc2ccc(NC(=O)Nc3cccc(C(C)=O)c3)cc2c1=O` [Compound 211, 1-(3-acetylphenyl)-3-(3-(2-methoxyethyl)-4-oxo-2-(pyridin-2-yl)-3,4-dihydroquinazolin-6-yl)urea], the logD [1] is reported as 2.48, the “Lipophilicity class from Log D” value [1] is reported as “ideal lipophilicity” and the “Clearance class from % QH” value [5] is reported as “medium clearance”. For the same compound, the “% QH (Well stirred model)” value [5] was 38.8%, the EC50 ([2]; fold increase of ATGL by densitometry, as % of 1.6 fold maximum with siCOP1, doses 10-5000 nM, read-out: EC50 (in-vitro)) was 0.199 µM and the “ATGL level in HepG2 cells” value [2] was “increased ATGL level”. The “Mean % remaining at 2 hrs” value [3] was 110.3% and the “Plasma stability” value [3] was “good plasma stability”.

With `CC(=O)c1cccc(NC(=O)Nc2ccc3ncn(CC(=O)Nc4ccccc4F)c(=O)c3c2)c1` [Compound 253, 2-(6-(3-(3-acetylphenyl)ureido)-4-oxoquinazolin-3 (4H)-yl)-N-(2-fluorophenyl)acetamide] the logD [1] was 3.01, the “Lipophilicity class from Log D” value [1] was “ideal lipophilicity” and the “Clearance class from % QH” value [5] was “lower clearance”. For the same compound, the “% QH (Well stirred model)” value [5] was 29.8%, the “Increase in ATGL level” value [2] was “+” and the “Mean % remaining at 2 hrs” value [3] was 67.2%. The “Plasma stability” value [3] was “good plasma stability” and the “Reduction in Lipid Droplets” value [4] was “++”.

For `COCCn1c(C(=O)N2CCCCC2)nc2ccc(NC(=O)Nc3cccc(C(C)=O)c3)cc2c1=O` [Compound 330a, 1-(3-acetylphenyl)-3-(3-(2-methoxyethyl)-4-oxo-2-(piperidine-1-carbonyl)-3,4-dihydroquinazolin-6-yl)urea], the logD [1] was 1.79, the “Lipophilicity class from Log D” value [1] was “ideal lipophilicity” and the “Clearance class from % QH” value [5] was “lower clearance”. The “% QH (Well stirred model)” value [5] was 26.0%, the “Mean % remaining at 2 hrs” value [3] was 45.8% and the “Plasma stability” value [3] was “good plasma stability”.

In the case of `COCCc1ccc(OCC(O)CNC(C)C)cc1` (stereo not shown) [Metroprolol, reference compound], the “LogD @ pH 7.4” value [1] is reported as −0.09.

In the case of `CC(C)[N+](C)(CCOC(=O)C1c2ccccc2Oc2ccccc21)C(C)C` [Propantheline, reference compound], the “Mean % remaining at 2 hrs” value [3] is reported as 1.7%.

In the case of `O=c1c(O)c(-c2ccc(O)c(O)c2)oc2cc(O)cc(O)c12` [Quercetin, reference compound], the “LogD @ pH 7.4” value [1] is reported as 2.81.
